Where “and” joins values, the source holds several entries; their conditions need not be identical. Equal entries are not always repeated.
Test system: 521955-158-R2-J5-PDC complex spheroid growth, % test/control
Experiment: Anticancer human tumor 521955-158-R2-J5-PDC patient-derived pancreatic carcinoma cell line growth inhibition [Asc]
Conditions: for viability, T/C: stronger effect = lower value
Outline: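 Concentration series start at each agent's clinical Cmax, or at 10 microM when none is established, and drop in half-log steps; agents are applied alone or together to complex spheroids built with HUVEC and hMSC.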

[1] = curve of first compound, second compound 0.1 µM
[2] = curve of first compound, second compound 0.316 µM
[3] = curve of first compound, second compound 1 µM
[4] = curve of first compound, second compound 3.16 µM
[5] = curve of first compound, second compound 10 µM
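Note: spheroids exposed to agents for 7 days before readout.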
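Throughout, for viability, T/C: 100% = DMSO vehicle control viability.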

For C#Cc1c(F)ccc2cc(O)cc(-c3ncc4c(N5CC6CCC(C5)N6)nc(OCC56CCCN5CC(F)C6)nc4c3F)c12 (configuration not stated) + Cc1c(S(C)(=O)=O)c(-c2cc(F)cc(N3CCN(c4ccc(NS(=O)(=O)c5ccc(NC(CCN6CCC(C(=O)OCCCP(=O)(O)O)CC6)CSc6ccccc6)c(S(=O)(=O)C(F)(F)F)c5)cc4)CC3)c2)c(-c2ccc(Cl)cc2)n1C(C)C, the IC50 [1] was < 31.6 nM, the IC50 [2] was < 31.6 nM and the IC50 [3] was < 31.6 nM. For the same compound, the IC50 [4] was < 31.6 nM, the IC50 [5] was > 10000 nM and the viability, T/C (second compound 0.1 µM, first compound 0.0316 µM) was 44.7%. It also gave a viability, T/C (second compound 0.1 µM, first compound 0.1 µM) of 30.4%, a viability, T/C (second compound 0.1 µM, first compound 0.316 µM) of 38.7% and a viability, T/C (second compound 0.1 µM, first compound 1 µM) of 33.9%. For the same compound, the viability, T/C (second compound 0.1 µM, first compound 3.16 µM) was 38.5%, the viability, T/C (second compound 0.1 µM, first compound 10 µM) was 34% and the viability, T/C (second compound 0.316 µM, first compound 0.0316 µM) was 43.6%. The viability, T/C (second compound 0.316 µM, first compound 0.1 µM) was 27.9%, the viability, T/C (second compound 0.316 µM, first compound 0.316 µM) was 33.3% and the viability, T/C (second compound 0.316 µM, first compound 1 µM) was 32.1%. For the same compound, the viability, T/C (second compound 0.316 µM, first compound 3.16 µM) was 32.5%, the viability, T/C (second compound 0.316 µM, first compound 10 µM) was 34.4% and the viability, T/C (second compound 1 µM, first compound 0.0316 µM) was 31.3%. It also gave a viability, T/C (second compound 1 µM, first compound 0.1 µM) of 38.4%, a viability, T/C (second compound 1 µM, first compound 0.316 µM) of 39.3% and a viability, T/C (second compound 1 µM, first compound 1 µM) of 31.8%. The viability, T/C (second compound 1 µM, first compound 3.16 µM) was 28.8%, the viability, T/C (second compound 1 µM, first compound 10 µM) was 29.4% and the viability, T/C (second compound 3.16 µM, first compound 0.0316 µM) was 42.2%. The viability, T/C (second compound 3.16 µM, first compound 0.1 µM) was 41.3%, the viability, T/C (second compound 3.16 µM, first compound 0.316 µM) was 34.7% and the viability, T/C (second compound 3.16 µM, first compound 1 µM) was 34.8%. It also gave a viability, T/C (second compound 3.16 µM, first compound 3.16 µM) of 35.9%, a viability, T/C (second compound 3.16 µM, first compound 10 µM) of 44.7% and a viability, T/C (second compound 10 µM, first compound 0.0316 µM) of 174%. The viability, T/C (second compound 10 µM, first compound 0.1 µM) was 152%, the viability, T/C (second compound 10 µM, first compound 0.316 µM) was 155% and the viability, T/C (second compound 10 µM, first compound 1 µM) was 152%. It also gave a viability, T/C (second compound 10 µM, first compound 3.16 µM) of 113% and a viability, T/C (second compound 10 µM, first compound 10 µM) of 79.6%.

For Cn1ncnc1[C@H]1c2n[nH]c(=O)c3cc(F)cc(c23)N[C@@H]1c1ccc(F)cc1, the viability, T/C (compound 0.000316 µM) was 106% and 99.6% and 79.6%, the viability, T/C (compound 0.001 µM) was 81.4% and 87.9% and 79.3% and the viability, T/C (compound 0.00316 µM) was 68.4% and 93.3% and 73.6%. The viability, T/C (compound 0.01 µM) was 76.5% and 83.7% and 68.9%, the viability, T/C (compound 0.0316 µM) was 81.5% and 76.8% and 63.5% and the viability, T/C (compound 0.1 µM) was 57.7% and 68.6% and 70.2%. The IC50 (curve of compound) was > 100 nM.

In the case of NC(=O)C(=Cn1cnc(-c2cc(C(F)(F)F)cc(C(F)(F)F)c2)n1)c1cncnc1 + Cc1c(S(C)(=O)=O)c(-c2cc(F)cc(N3CCN(c4ccc(NS(=O)(=O)c5ccc(NC(CCN6CCC(C(=O)OCCCP(=O)(O)O)CC6)CSc6ccccc6)c(S(=O)(=O)C(F)(F)F)c5)cc4)CC3)c2)c(-c2ccc(Cl)cc2)n1C(C)C, the IC50 [1] is reported as 1.94 nM, the IC50 [2] is reported as < 0.949 nM and the IC50 [3] is reported as 1.36 nM. The IC50 [4] was 1.25 nM, the IC50 [5] was 25.3 nM and the viability, T/C (second compound 0.1 µM, first compound 0.000949 µM) was 77.2%. It also gave a viability, T/C (second compound 0.1 µM, first compound 0.003 µM) of 33.3%, a viability, T/C (second compound 0.1 µM, first compound 0.00949 µM) of 28.4% and a viability, T/C (second compound 0.1 µM, first compound 0.03 µM) of 20.9%. For the same compound, the viability, T/C (second compound 0.1 µM, first compound 0.0949 µM) was 22.3%, the viability, T/C (second compound 0.1 µM, first compound 0.3 µM) was 28% and the viability, T/C (second compound 0.316 µM, first compound 0.000949 µM) was 44.5%. For the same compound, the viability, T/C (second compound 0.316 µM, first compound 0.003 µM) was 48%, the viability, T/C (second compound 0.316 µM, first compound 0.00949 µM) was 30% and the viability, T/C (second compound 0.316 µM, first compound 0.03 µM) was 23.2%. For the same compound, the viability, T/C (second compound 0.316 µM, first compound 0.0949 µM) was 17.2%, the viability, T/C (second compound 0.316 µM, first compound 0.3 µM) was 24.1% and the viability, T/C (second compound 1 µM, first compound 0.000949 µM) was 54.3%. For the same compound, the viability, T/C (second compound 1 µM, first compound 0.003 µM) was 40.5%, the viability, T/C (second compound 1 µM, first compound 0.00949 µM) was 21.4% and the viability, T/C (second compound 1 µM, first compound 0.03 µM) was 17.7%. For the same compound, the viability, T/C (second compound 1 µM, first compound 0.0949 µM) was 14.4%, the viability, T/C (second compound 1 µM, first compound 0.3 µM) was 14.8% and the viability, T/C (second compound 3.16 µM, first compound 0.000949 µM) was 53.2%. For the same compound, the viability, T/C (second compound 3.16 µM, first compound 0.003 µM) was 40%, the viability, T/C (second compound 3.16 µM, first compound 0.00949 µM) was 22.6% and the viability, T/C (second compound 3.16 µM, first compound 0.03 µM) was 13.5%. It also gave a viability, T/C (second compound 3.16 µM, first compound 0.0949 µM) of 9.75%, a viability, T/C (second compound 3.16 µM, first compound 0.3 µM) of 13.1% and a viability, T/C (second compound 10 µM, first compound 0.000949 µM) of 143%. It also gave a viability, T/C (second compound 10 µM, first compound 0.003 µM) of 106%, a viability, T/C (second compound 10 µM, first compound 0.00949 µM) of 91.4% and a viability, T/C (second compound 10 µM, first compound 0.03 µM) of 40.3%. The viability, T/C (second compound 10 µM, first compound 0.0949 µM) was 17.1% and the viability, T/C (second compound 10 µM, first compound 0.3 µM) was 10.8%.

For Cc1nc(N2CCC3(CC2)COC(C)C3N)c(CO)nc1Sc1ccnc(N)c1Cl (configuration not stated) + CCN1C(C(=O)NC23CCC(C(=O)O)(CC2)CC3)C(c2cccc(Cl)c2F)C2(C(=O)Nc3cc(Cl)ccc32)C12CCCCC2, the IC50 (curve of first compound, second compound 0.03 µM) was 1500 nM, the IC50 (curve of first compound, second compound 0.0949 µM) was > 3000 nM and the IC50 (curve of first compound, second compound 0.3 µM) was 1310 nM. For the same compound, the IC50 (curve of first compound, second compound 0.949 µM) was > 3000 nM, the IC50 (curve of first compound, second compound 3 µM) was > 3000 nM and the viability, T/C (second compound 0.03 µM, first compound 0.00949 µM) was 75.7%. It also gave a viability, T/C (second compound 0.03 µM, first compound 0.03 µM) of 75.9%, a viability, T/C (second compound 0.03 µM, first compound 0.0949 µM) of 65.8% and a viability, T/C (second compound 0.03 µM, first compound 0.3 µM) of 60.8%. The viability, T/C (second compound 0.03 µM, first compound 0.949 µM) was 47.5%, the viability, T/C (second compound 0.03 µM, first compound 3 µM) was 50.3% and the viability, T/C (second compound 0.0949 µM, first compound 0.00949 µM) was 88.3%. It also gave a viability, T/C (second compound 0.0949 µM, first compound 0.03 µM) of 95.6%, a viability, T/C (second compound 0.0949 µM, first compound 0.0949 µM) of 70.2% and a viability, T/C (second compound 0.0949 µM, first compound 0.3 µM) of 80.2%. It also gave a viability, T/C (second compound 0.0949 µM, first compound 0.949 µM) of 70.8%, a viability, T/C (second compound 0.0949 µM, first compound 3 µM) of 57.6% and a viability, T/C (second compound 0.3 µM, first compound 0.00949 µM) of 88.5%. It also gave a viability, T/C (second compound 0.3 µM, first compound 0.03 µM) of 87.1%, a viability, T/C (second compound 0.3 µM, first compound 0.0949 µM) of 71.2% and a viability, T/C (second compound 0.3 µM, first compound 0.3 µM) of 59.2%. For the same compound, the viability, T/C (second compound 0.3 µM, first compound 0.949 µM) was 62%, the viability, T/C (second compound 0.3 µM, first compound 3 µM) was 37.8% and the viability, T/C (second compound 0.949 µM, first compound 0.00949 µM) was 97.7%. The viability, T/C (second compound 0.949 µM, first compound 0.03 µM) was 87.8%, the viability, T/C (second compound 0.949 µM, first compound 0.0949 µM) was 85% and the viability, T/C (second compound 0.949 µM, first compound 0.3 µM) was 67.2%. For the same compound, the viability, T/C (second compound 0.949 µM, first compound 0.949 µM) was 68.1%, the viability, T/C (second compound 0.949 µM, first compound 3 µM) was 69.5% and the viability, T/C (second compound 3 µM, first compound 0.00949 µM) was 139%. It also gave a viability, T/C (second compound 3 µM, first compound 0.03 µM) of 122%, a viability, T/C (second compound 3 µM, first compound 0.0949 µM) of 101% and a viability, T/C (second compound 3 µM, first compound 0.3 µM) of 96.6%. The viability, T/C (second compound 3 µM, first compound 0.949 µM) was 90.6% and the viability, T/C (second compound 3 µM, first compound 3 µM) was 99%.
